In BindingDB's records for doi:10.1016/j.bmcl.2016.03.009 (Toray Industries, 2016):

Assay: Agonist activity at human IP receptor in platelet rich plasma assessed as inhibition of ADP-induced platelet aggregation preincubated for 1 min followed by addition of ADP by aggregometry
Work on O=C(O)COc1ccc(CCN(C(=O)c2ccccc2)c2ccc(Cl)cc2)cc1 yielded an IC50 of 740 nM. In the case of O=C(O)COc1cccc(CCN(C(=O)c2ccccc2)c2ccc(Cl)cc2)c1, the IC50 is reported as greater than 30000 nM. In the case of O=C(O)COc1ccc(CCCN(C(=O)c2ccccc2)c2ccc(Cl)cc2)cc1, the IC50 is reported as 20000 nM. O=C(O)COc1ccc(CN(C(=O)c2ccccc2)c2ccc(Cl)cc2)cc1 gave an IC50 greater than 30000 nM. For O=C(O)COc1cccc2c1OCCN2CCN(C(=O)c1ccccc1)c1ccc(Cl)cc1, the IC50 was 13 nM. For O=C(O)COC1CCC(=CCN(C(=O)c2ccccc2)c2ccc(Cl)cc2)CC1 (stereo not given), the IC50 was 320 nM. Compound O=C(O)COC1CCN(CCN(C(=O)c2ccccc2)c2ccc(Cl)cc2)CC1 has an IC50 of 440 nM. In the case of O=C(O)COC1CCN(CCN(C(=O)c2ccccc2)c2ccc(Cl)cc2)C1 (stereo not given), the IC50 is reported as 23000 nM. With O=C(O)COC1CCN(CCN(C(=O)c2ccccc2)c2ccccc2)CC1 the IC50 was 3200 nM. In the case of Cc1ccc(N(CCN2CCC(OCC(=O)O)CC2)C(=O)c2ccccc2)cc1, the IC50 is reported as 130 nM. COc1ccc(N(CCN2CCC(OCC(=O)O)CC2)C(=O)c2ccccc2)cc1 showed an IC50 of 900 nM. With O=C(O)COC1CCN(CCN(C(=O)c2ccccc2)c2ccc(N3CCCC3)cc2)CC1 the IC50 was greater than 1000 nM. Cc1cc(C)c(N(CCN2CCC(OCC(=O)O)CC2)C(=O)c2ccccc2)c(C)c1 showed an IC50 greater than 1000 nM. In the case of Cc1ccc(N(CCN2CCC(OCC(=O)O)CC2)C(=O)c2ccccc2)c(C)c1, the IC50 is reported as greater than 1000 nM. Compound Cc1cccc(N(CCN2CCC(OCC(=O)O)CC2)C(=O)c2ccccc2)c1 has an IC50 greater than 1000 nM. Work on Cc1ccccc1N(CCN1CCC(OCC(=O)O)CC1)C(=O)c1ccccc1 yielded an IC50 greater than 1000 nM. In the case of CC(C)c1ccc(N(CCN2CCC(OCC(=O)O)CC2)C(=O)c2ccccc2)cc1, the IC50 is reported as greater than 1000 nM. CCCCc1ccc(N(CCN2CCC(OCC(=O)O)CC2)C(=O)c2ccccc2)cc1 gave an IC50 greater than 1000 nM. For CCCc1ccc(N(CCN2CCC(OCC(=O)O)CC2)C(=O)c2ccccc2)cc1, the IC50 was 1000 nM. In the case of CCc1ccc(N(CCN2CCC(OCC(=O)O)CC2)C(=O)c2ccccc2)cc1, the IC50 is reported as 430 nM.
